Experimental data from US11753411B2, “Substituted pyrazolo[1,5-a]pyrimidines as TYK2 pseudokinase ligands” (Ventyx Biosciences, Inc., priority 2019, dated 2023).
pIC50: −log10 of the molar value.

Test system: IFN-a/Jak1 Tyk2
Assay: Co-stimulation assay in lysed whole blood: IFNa (JAK1/TYK2) stimulated STAT1 phosphorylation
Type: cell-based
Settings: Homo sapiens, 20 min, 100 ng/mL IFNa (with 10 ng/mL GM-CSF), pSTAT by flow cytometry
Experimental: Example 12: Co-Stimulation Assay in Lysed Whole Blood; JAK2: GM-CSF Stimulated STAT5 Phosphorylation and JAK1/TYK2 Stimulated STAT1 Phosphorylation Assay
Human Blood Lysis Using Abcam's RBC Lysis Buffer
Dilute RBC lysis buffer to 1× in distilled water. Add 2 mL blood to 38 mL of 1×RBC-lysis buffer. Incubate for 15 mins at RT, in dark. Spin at 300 g, 5 mins, to collect the pellet. Re-lyse if necessary. Re-suspend pellet in 5 mL of cRPMI.
Compound and Cytokine Treatment
Aliquot 80 μL of lysed human blood in to wells of 96 deep-well plate. Add 10 μl of (10× conc.) of different concentrations of compounds to all wells except controls (unstained and unstimulated) and mix it with the help of 100 uL multichannel. Add 10 uL of RPMI media in controls. For dilution of compounds and dilution range please refer Appendix. Incubate on water bath or CO2 incubator for 1 hour at 37° C. Add 10 μl of (10× conc.) of cytokine mix (GM-CSF and IFNa) (final conc.10 ng/mL of GM-CSF and 100 ng/mL of IFNa) to each well except unstimulated and unstained controls and incubate further for 20 minutes on water bath at 37° C.
Add 900 μL of prewarmed 1× Fix/Lyse solution (Appendix) and mix it properly using 1000 μl multichannel, incubate further on water bath at 37° C. for 10 minutes (which includes time of addition). Centrifuge at 800×g for 5 minutes at 40° C.; remove 900 uL of supernatant and add 900 μL of 1×PBS. Centrifuge at 800×g for 5 minutes at 40° C., remove 900 μL of supernatant. Wash one more time with 900 μL of PBS (optional) and resuspend pellets in 100 uL of PBS.
Disrupt the pellet by gentle tapping and resuspend in 1000 μL of BD Phosflow Perm Buffer III and incubate plate on ice for 30 minutes. Centrifuge plate at 800×g for 5 minutes at 40° C. Wash two more times with 1000 μL of BD Pharmingen Stain Buffer.
Disrupt the pellet by gentle tapping. Resuspend pellets in 100 uL of Stain Buffer and add 5 μL of pSTAT5_AF488 Ab and 5 uL of pSTAT_PE in all wells except unstained control and mix properly using 200 μl multichannel, incubate overnight at […]. Add 900 μL of wash buffer and centrifuge at 1800 rpm for 3 minutes at 40° C. Wash one more time with 1000 μL of BD Pharmingen Stain Buffer. Finally resuspend the pellet in 300 uL of BD Pharmingen Stain Buffer. Transfer the cells to 96-well v-bottom plate and acquire the cells in Beckman Coulter CytExpert. Acquiring cells in Flow Cytometer: Keep the threshold value to 250 and cell concentration should not exceed 100-500 cells/μL. Acquire at least 5,000-10,000 cells.
RPMI 1640 Complete Medium: RPMI 1640 media+10% FBS.
Cytokine dilution: 1) GM-CSF Stock at 100 ug/mL. Prepare an intermediate dilution of 1 ug/mL by adding 2 uL of stock into 198 uL of cRPMI. Further dilute to 100 ng/mL by adding 100 uL of the intermediate stock to 900 uL of cRPMI. 2) IFNa Stock at 200 ug/mL. Dilute IFNa stock 1:200 by adding 5 uL of stock into the 1000 uL of 100 ng/mL GM-CSF working stock as above to give a combined working stock of 1000 ng/mL of IFNa and 100 ng/mL GM-CSF (10×). Keep it on ice until used.
Lyse/Fix buffer preparation: Dilute 5× Lyse/Fix buffer to 1× using MQ water and keep at 37° C. until used.
BD Phosflow perm buffer III: Keep on ice/fridge.

| SMILES | pIC50 |
| --- | --- |
| CNc1cc(Nc2cccc3c2OCCO3)nc2c(NC(=O)NCC3CC3)cnn12 [Compound 103, 1-(cyclopropylmethyl)-3-(5-((2,3-dihydrobenzo[b][1,4]dioxin-5-yl)amino)-7-(methylamino)pyrazolo[1,5-a]pyrimidin-3-yl)urea] | 5.00 to 6.00 |
| CNC(=O)Nc1cnn2c(NC)cc(Nc3cccc4c3NC(=O)CO4)nc12 [Compound 95, 1-methyl-3-(7-(methylamino)-5-((3-oxo-3,4-dihydro-2H-benzo[b][1,4]oxazin-5-yl)amino)pyrazolo[1,5-a]pyrimidin-3-yl)urea] | 5.00 to 6.00 |
| CNc1cc(Nc2cc(C)cc3c2OCCO3)nc2c(NC(=O)NC3CC3)cnn12 [Compound 79, 1-cyclopropyl-3-(5-((7-methyl-2,3-dihydrobenzo[b][1,4]dioxin-5-yl)amino)-7-(methylamino)pyrazolo[1,5-a]pyrimidin-3-yl)urea] | 5.00 to 6.00 |
| CNC(=O)Nc1cnn2c(NC)cc(Nc3ccccc3-c3ccccc3)nc12 [Compound 165, 1-(5-([1,1′-biphenyl]-2-ylamino)-7-(methylamino)pyrazolo[1,5-a]pyrimidin-3-yl)-3-methylurea] | ≤ 5.00 |
| CNc1cc(Nc2cc(C#N)cc3c2OCCO3)nc2c(NC(=O)NC3CCC3)cnn12 [Compound 106, 1-(5-((7-cyano-2,3-dihydrobenzo[b][1,4]dioxin-5-yl)amino)-7-(methylamino)pyrazolo[1,5-a]pyrimidin-3-yl)-3-cyclobutylurea] | 5.00 to 6.00 |
| CNc1cc(Nc2cc(C)cc(C)c2)nc2c(NC(=O)N[C@@H]3C[C@@H]3F)cnn12 [Compound 60, 1-(5-((3,5-dimethylphenyl)amino)-7-(methylamino)pyrazolo[1,5-a]pyrimidin-3-yl)-3-((1R,2S)-2-fluorocyclopropyl)urea] | ≤ 5.00 |
| CNc1cc(Nc2cccc3c2OCCC3(F)F)nc2c(NC(=O)N[C@@H]3C[C@@H]3F)cnn12 [Compound 184, 1-(5-((4,4-difluorochroman-8-yl)amino)-7-(methylamino)pyrazolo[1,5-a]pyrimidin-3-yl)-3-((1R,2S)-2-fluorocyclopropyl)urea] | 5.00 to 6.00 |
| CNC(=O)Nc1cnn2c(NC)cc(-c3cn(C)c4ncccc34)nc12 [Compound 74, 1-methyl-3-(5-(1-methyl-1H-pyrrolo[2,3-b]pyridin-3-yl)-7-(methylamino)pyrazolo[1,5-a]pyrimidin-3-yl)urea] | 5.00 to 6.00 |
| CNc1cc(Nc2cccc3c2OCCO3)nc2c(NC(=O)N[C@@H]3C[C@@H]3F)cnn12 [Compound 26, 1-(5-((2,3-dihydrobenzo[b][1,4]dioxin-5-yl)amino)-7-(methylamino)pyrazolo[1,5-a]pyrimidin-3-yl)-3-((1R,2S)-2-fluorocyclopropyl)urea] | > 6.00 |
| CNC(=O)Nc1cnn2c(NC)cc(Nc3cccc(Cl)c3OC)nc12 [Compound 63, 1-(5-((3-chloro-2-methoxyphenyl)amino)-7-(methylamino)pyrazolo[1,5-a]pyrimidin-3-yl)-3-methylurea] | 5.00 to 6.00 |
| CNc1cc(Nc2cccnc2OC(F)F)nc2c(NC(=O)N[C@@H]3C[C@@H]3F)cnn12 [Compound 171, 1-(5-((2-(difluoromethoxy)pyridin-3-yl)amino)-7-(methylamino)pyrazolo[1,5-a]pyrimidin-3-yl)-3-((1R,2S)-2-fluorocyclopropyl)urea] | 5.00 to 6.00 |
| CNC(=O)Nc1cnn2c(NC)cc(-c3c[nH]c4ncccc34)nc12 [Compound 88, 1-methyl-3-(7-(methylamino)-5-(1H-pyrrolo[2,3-b]pyridin-3-yl)pyrazolo[1,5-a]pyrimidin-3-yl)urea] | 5.00 to 6.00 |
| CNc1cc(Nc2cccc3c2OCCO3)nc2c(NC(=O)NCC3(C#N)CC3)cnn12 [Compound 138, 1-((1-cyanocyclopropyl)methyl)-3-(5-((2,3-dihydrobenzo[b][1,4]dioxin-5-yl)amino)-7-(methylamino)pyrazolo[1,5-a]pyrimidin-3-yl)urea] | > 6.00 |
| CNC(=O)Nc1cnn2c(NC)cc(Nc3cc(F)cc4c3OCCO4)nc12 [Compound 65, 1-(5-((7-fluoro-2,3-dihydrobenzo[b][1,4]dioxin-5-yl)amino)-7-(methylamino)pyrazolo[1,5-a]pyrimidin-3-yl)-3-methylurea] | > 6.00 |

Second part, the compound after the results:

| pIC50 | SMILES |
| --- | --- |
| > 6.00 | CNC(=O)Nc1cnn2c(NC)cc(Nc3ccccc3-c3ncco3)nc12 [Compound 71, 1-methyl-3-(7-(methylamino)-5-((2-(oxazol-2-yl)phenyl)amino)pyrazolo[1,5-a]pyrimidin-3-yl)urea] |
| > 6.00 | CNc1cc(Nc2cc(F)cc3c2OCCO3)nc2c(NC(=O)NCC(N)=O)cnn12 [Compound 118, 2-(3-(5-((7-fluoro-2,3-dihydrobenzo[b][1,4]dioxin-5-yl)amino)-7-(methylamino)pyrazolo[1,5-a]pyrimidin-3-yl)ureido)acetamide] |
| > 6.00 | CNc1cc(Nc2cccc3occc23)nc2c(NC(=O)NCC#N)cnn12 [Compound 131, 1-(5-(benzofuran-4-ylamino)-7-(methylamino)pyrazolo[1,5-a]pyrimidin-3-yl)-3-(cyanomethyl)urea] |
| > 6.00 | CNc1cc(Nc2cc(Cl)cc3c2OCCO3)nc2c(NC(=O)NC3CC3)cnn12 [Compound 85, 1-(5-((7-chloro-2,3-dihydrobenzo[b][1,4]dioxin-5-yl)amino)-7-(methylamino)pyrazolo[1,5-a]pyrimidin-3-yl)-3-cyclopropylurea] |
| > 6.00 | CNc1cc(Nc2cccc3c2OCCO3)nc2c(NC(=O)NC3CC(CO)C3)cnn12 (centres unmarked) [Compound 47, 1-(5-((2,3-dihydrobenzo[b][1,4]dioxin-5-yl)amino)-7-(methylamino)pyrazolo[1,5-a]pyrimidin-3-yl)-3-(3-(hydroxymethyl)cyclobutyl)urea] |
| > 6.00 | CNC(=O)Nc1cnn2c(NC)cc(Nc3cc(OC)cc4c3OCCO4)nc12 [Compound 81, 1-(5-((7-methoxy-2,3-dihydrobenzo[b][1,4]dioxin-5-yl)amino)-7-(methylamino)pyrazolo[1,5-a]pyrimidin-3-yl)-3-methylurea] |
| > 6.00 | CNc1cc(Nc2cc(F)cc3c2OCCO3)nc2c(NC(=O)NC3CC3F)cnn12 (centres unmarked) [Compound 37, 1-(5-((7-fluoro-2,3-dihydrobenzo[b][1,4]dioxin-5-yl)amino)-7-(methylamino)pyrazolo[1,5-a]pyrimidin-3-yl)-3-(2-fluorocyclopropyl)urea] |
| > 6.00 | CNC(=O)Nc1cnn2c(NC)cc(Nc3cc(C#N)cc4c3OCCO4)nc12 [Compound 83, 1-(5-((7-cyano-2,3-dihydrobenzo[b][1,4]dioxin-5-yl)amino)-7-(methylamino)pyrazolo[1,5-a]pyrimidin-3-yl)-3-methylurea] |
| > 6.00 | CNC(=O)Nc1cnn2c(NC)cc(Nc3ccccc3OC)nc12 [Compound 149, 1-(5-((2-methoxyphenyl)amino)-7-(methylamino)pyrazolo[1,5-a]pyrimidin-3-yl)-3-methylurea] |
| > 6.00 | CNc1cc(Nc2cccc3c2OCCO3)nc2c(NC(=O)NC(C)C)cnn12 [Compound 148, 1-(5-((2,3-dihydrobenzo[b][1,4]dioxin-5-yl)amino)-7-(methylamino)pyrazolo[1,5-a]pyrimidin-3-yl)-3-isopropylurea] |
| > 6.00 | CNc1cc(Nc2cccc3c2OCCO3)nc2c(NC(=O)NCCC(F)F)cnn12 [Compound 179, 1-(3,3-difluoropropyl)-3-(5-((2,3-dihydrobenzo[b][1,4]dioxin-5-yl)amino)-7-(methylamino)pyrazolo[1,5-a]pyrimidin-3-yl)urea] |
| > 6.00 | CNC(=O)Nc1cnn2c(NC)cc(Nc3cccc4c3OCCO4)nc12 [Compound 7, 1-(5-((2,3-dihydrobenzo[b][1,4]dioxin-5-yl)amino)-7-(methylamino)pyrazolo[1,5-a]pyrimidin-3-yl)-3-methylurea] |
